Entries after “also recorded” stand apart in the source; their conditions may differ.
How the values were obtained:
[1] = system: three-dimensional skin model (Test Skin LSE-002 or 003; Toyobo) treated with SDS; assay: Skin roughness model: three-dimensional skin model defatted with SDS, cell viability by MTT (absorbance of formazan); format: cell-based; details: for cell viability (absorbance of formazan): dissolved in olive oil, added on Test Skin treated with 1% SDS, left overnight, MTT kit
[2] = Dispersion stability test in water (absorbance at 650 nm); format: physicochemical; details: FIG. 6; for change in turbidity of the water suspension: after 6 hours
Description: MEL-B or MEL-C at a concentration of 10 mg/mL was added to water, stirred and suspended. Its absorbance at 650 nm was measured.

| Substance | cell viability (absorbance of formazan) [1] | dispersion stability ([2]; 10 mg/mL in water, stirred and suspended, absorbance at 650 nm) | change in turbidity of the water suspension [2] | skin roughness improvement compared with MEL-A ([1]; FIG. 4 legend, three-dimensional skin model treated with SDS, viability) |
| --- | --- | --- | --- | --- |
| mannosylerythritol lipid A [MEL-A] | increased in a MEL-A-concentration-dependent manner |  |  |  |
| mannosylerythritol lipid C [MEL-C] | increased in a MEL-C-concentration-dependent manner | particularly excellent in dispersion stability; also recorded: more excellent than MEL-A in water dispersion stability | little observable change in turbidity |  |
| mannosylerythritol lipid B [MEL-B] | increased in a MEL-B-concentration-dependent manner |  | little observable change in turbidity | increased skin roughness improvement over MEL-A |

— patent US20110257116A1, “BIOSURFACTANT-CONTAINING SKIN CARE COSMETIC AND SKIN ROUGHNESS-IMPROVING AGENT” (National Institute Of Advanced Industrial Science And …, priority 2005, published 2011)
